Assay results published in US10584146B2, “Heme peptide materials for anti-inflammatory regenerative nanobiomedicine” (UCHICAGO ARGONNE, LLC, priority 2016, dated 2020).
Entries after “also recorded” stand apart in the source; their conditions may differ. The star is where a group is joined. Palmitoyl = CCCCCCCCCCCCCCCC(=O)*

Legend:
[1] = Peroxidase activity assay (TMB oxidation with H2O2); type: biochemical; conditions: for peroxidase activity over extended times: TMB ~300 μM, H2O2 ~300 μM, Peptide 10 μM, Heme 1 μM, HEPES pH 7; for peroxidase activity (oxidation of TMB): assemblies prepared in pH 7 HEPES (micelles), assay at pH 7, peptide 10 μM, heme 1 μM
Method: Peroxidase Activity Assay. Peroxidase activity was monitored using a Varian Cary 50 spectrophotometer and the kinetics software package. 652 nm was the chosen wavelength based on its characterization in the literature (extinction coefficient: 39,000 M−1 cm-1). In a solution of HEPES buffer, pH 7 (50 mM HEPES 100 mM NaCl), a commercially available cocktail of 3,3′,5,5′-Tetramethylbenzidine (TMB) and H2O2 (both ˜3 mM, purchased from Sigma-Aldrich) was diluted 1:10. This was monitored for 1 minute to detect any changes in the background then protein was added (prepared as above at 500 μM peptide and 50 μM heme) to a final concentration of 10 μM (1 μM Heme). The reaction was allowed to run for 15 minutes to assure completion. In the case of Michaelis-Menten analyses two stock solutions of TMB (10 mg/mL, 41.6 mM in DMSO) and peroxide (52.8 mM diluted in H2O, H2O2 stock concentration standardized by the method of Klassen et. al.) (57) were made so the concentrations could be varied de-pending on the experiment. When varying peroxide concentration TMB was at a concentration of 300 μM. Michaelis-Menten curves were fit using Origin 9.1 software to the equation (v0=kCat[E]0[S]0/(KM+[S]0)). Catalytic efficiency values (kCat/KM) were determined by fitting the linear portion of those curves to the equation (v0=(kCat/KM)[E]0[S]0). Total amount of oxidized TMB was calcu-lated by integrating the absorbance at 652 nm (done with Origin 9.1 software), and dividing that value by the extinction coefficient.
Many natural and synthetic heme proteins display peroxidase activity, a natural reaction that catalyzes the oxidation of high potential substrates using hydrogen peroxide (H2O2). Here, we employed heme-peroxidase catalysis as a benchmark reaction to investigate how supramolecular morphology in PA-Heme assemblies can control catalytic reactivity. (53) We have chosen the established protocol where H2O2 activated by the XXHeme assemblies reacts with the colorless molecule 3,3′,5,5′-tetramethylbenzidine (TMB) to yield the oxidized blue diimine product and water. (54) All of these assays were carried out in pH 7 HEPES buffer. Peptide assemblies were prepared in either pH 7 HEPES or 10.5 NH4OH and then diluted 50 fold into the reaction mixture to maintain standard reaction conditions. […] The rates of these peptides are consistent with the Michaelis-Menten enzyme kinetics model (FIGS. 19C, 19D, and 21). […] Applicants show a clear and significant dependence of peroxidase activity dependent on supramolecular morphology. […] The micelle structures offer a more dynamic assembly that allows substrate to interact with the engineered heme active site.

[2] = Spectroelectrochemistry, midpoint potential; type: physicochemical
Method: Electrochemistry. The samples were placed in a spectroecltrochemical cell (1 mm quartz) equipped with a platinum mesh working electrode, platinum wire auxiliary electrode, and a Ag/AgCl reference electrode (Basi, Inc.). […] Each applied voltage setting was allowed to equilibrate for a minimum of 20 minutes prior to UV/visible spectral acquisition (Perkin Elmer, Lambda 950, UV/vis/NIR spectrophotometer). Midpoint potential analysis was achieved by fitting a standard Boltzmann curve to the obtained data (OriginPro 9.1).

[3] = Heme titration, stoichiometry and binding constant analysis (UV/visible)
Method: FIGS. 14A-14P depict stoichiometry and binding constant analysis of peptide titrations (0-1000 μM XX in 50 μM titrants) into heme solutions (50 μM) in Hepes buffer (right) or 10 mM NH4OH (left). UV/visible spectroscopy and plots of [Peptide]/[Heme] vs. absorption (λSoret). The solid lines represent the binding constant analysis and were obtained in Origin v9.1 by applying equation 1 (FIG. 15). The following values were fixed: M=5×10^−5 M, 1=0.1 cm. All other values were permitted to float for the first round of analysis. Once n was determined, a common integer was applied to each data set within the conditions employed, e.g. n=3 for HEPES and n=6 for 10 mM NH4OH. The vertical line at x=10 marks the samples that were analyzed further by UV/vis and EPR.
FIG. 15 is the equation employed for stoichiometry and binding constant analysis; the follow variables are used: Ao, initial absorption; ϵB, extinction of bound heme; ϵs, extinction coefficient contribution from scattering; x, ratio of peptide to heme; n, set stoichiometry of peptide to heme; Kd, dissociation (binding) constant M, molar concentration of heme; l, cuvette pathlength.
Sample Preparation. Each peptide (3-4 mg) was dissolved in nanopure water (Millipore A10) to obtain a 1 wt % solution, c16-AAL3K3-CO2H (SEQ ID NO: 9) (1 wt %, 8.9 mM), c16-AHL3K3-CO2H (SEQ ID NO: 3) (1 wt %, 8.4 mM), c16-HHL3K3-CO2H (SEQ ID NO: 4) (1 wt %, 7.9 mM) and c16-MHL3K3-CO2H (SEQ ID NO: 5) (1 wt %, 8.0 mM). Hemin (Porcine, Sigma-Aldrich) was dissolved in DMSO (Sigma Aldrich) to achieve a 10 mM stock solution. Note: He-min/DMSO stock solutions were always made to ensure that the final DMSO concentration in the sam-ple was less than 1% (v/v). Typically, 38 μL of a 1 wt % stock solution was dissolved in 260 μL of ei-ther HEPES (50 mM HEPES, 100 mM NaCl pH 7.0) or 10 mM NH4OH, pH 10.5 to yield a 1 mM sample. […] Titration experiments analyzed samples that contained 50 μM Heme in either Hepes buffer or 10 mM NH4OH. […]

peroxidase activity over extended times [1] | peroxidase activity (oxidation of TMB) [1] | heme binding affinity (Kd), in words ([3]; fibers, compared with micelles) | heme binding affinity (Kd), in words ([3]; micelles) | kCat, in words ([1]; micelles, pH 7) | Substance | midpoint potential (EM) vs. SHE ([2]; fibers, 10 mM NH4OH) [mV] | midpoint potential (EM) vs. SHE ([2]; micelles, HEPES) [mV]
does not appear to have any activity | not reactive |  |  |  | c16-AAL3K3-CO2H (Palmitoyl-AALLLKKK-OH; also: heme) [AAHeme, control peptide amphiphile without heme coordination site; XXHeme denotes the holo state (coordinated heme)] |  | 
most initial activity | varying degrees of peroxidase activity | binding affinity actually increases |  |  | c16-AHL3K3-CO2H (Palmitoyl-AHLLLKKK-OH; also: heme) [AHHeme, XXHeme denotes the holo state] | −655 | −315
most initial activity | varying degrees of peroxidase activity | decrease in heme binding affinity |  | higher kCat, than HHHeme | c16-MHL3K3-CO2H (Palmitoyl-MHLLLKKK-OH; also: heme) [MHHeme, XXHeme denotes the holo state] | −442 | −312

Substance | peroxidase activity over extended times [1] | peroxidase activity (oxidation of TMB) [1] | heme binding affinity (Kd), in words ([3]; fibers, compared with micelles) | heme binding affinity (Kd), in words ([3]; micelles) | kCat, in words ([1]; micelles, pH 7) | midpoint potential (EM) vs. SHE ([2]; fibers, 10 mM NH4OH) [mV] | midpoint potential (EM) vs. SHE ([2]; micelles, HEPES) [mV]
c16-HHL3K3-CO2H (Palmitoyl-HHLLLKKK-OH; also: heme) [HHHeme, XXHeme denotes the holo state] |  | varying degrees of peroxidase activity; also recorded: low reactivity compared to the other peptides |  | highest binding affinity |  | −333 | −270
